Measurements taken from US9278922B2 (ABBVIE INC., priority 2009, dated 2016).

Each compound was assayed on HCV 1b-Con-1 replicon (assay: HCV 1b-Con-1 replicon assay (luciferase reporter gene, HuH-7 cells)). Conditions: Hepatitis C virus, Huh-7, luciferase reporter gene activity in the replicon, in the presence of 5% FBS.
Assay type: cell-based, Hepatitis C virus (HCV) genotype 1b-Con1

SMILES	EC50 [nM]
COC(=O)N[C@H](C(=O)N1CCC[C@H]1C(=O)Nc1ccc(CN(Cc2ccc(NC(=O)[C@@H]3CCCN3C(=O)[C@@H](NC(=O)OC)C(C)(C)C)cc2)[C@@H]2CCOC2)cc1)C(C)(C)C [Example 44, dimethyl ([(3R)-tetrahydrofuran-3-ylimino]bis{methanediylbenzene-4,1-diylcarbamoyl(2S)pyrrolidine-2,1-diyl[(2S)-3,3-dimethyl-1-oxobutane-1,2-diyl]})biscarbamate]	10 to 100
COC(=O)N[C@@H](CC(C)C)C(=O)N1CCC[C@H]1C(=O)Nc1ccc(CN(Cc2ccc(NC(=O)[C@@H]3CCCN3C(=O)[C@H](CC(C)C)NC(=O)OC)cc2)c2ccccc2)cc1 [Example 45, dimethyl [(phenylimino)bis{methanediylbenzene-4,1-diylcarbamoyl(2S)pyrrolidine-2,1-diyl[(2S)-4-methyl-1-oxopentane-1,2-diyl]}]biscarbamate]	1 to 10
CCC[C@H](NC(=O)OC)C(=O)N1CCC[C@H]1C(=O)Nc1ccc(CN(Cc2ccc(NC(=O)[C@@H]3CCCN3C(=O)[C@H](CCC)NC(=O)OC)cc2)c2ccccc2)cc1 [Example 46, dimethyl [(phenylimino)bis{methanediylbenzene-4,1-diylcarbamoyl(2S)pyrrolidine-2,1-diyl[(2S)-1-oxopentane-1,2-diyl]}]biscarbamate]	1 to 10
COC(=O)N[C@H](C(=O)N(C)[C@@H](C)C(=O)Nc1ccc(CN(Cc2ccc(NC(=O)[C@H](C)N(C)C(=O)[C@@H](NC(=O)OC)C(C)(C)C)cc2)c2ccccc2)cc1)C(C)(C)C [Example 47, dimethyl[(phenylimino)bis{methanediylbenzene-4,1-diylimino[(2S)-1-oxopropane-1,2-diyl](methylimino)[(2S)-3,3-dimethyl-1-oxobutane-1,2-diyl]}]biscarbamate]	1 to 10
COC(=O)N[C@H](C(=O)N1C[C@H](O)C[C@H]1C(=O)Nc1ccc(CN(Cc2ccc(NC(=O)[C@@H]3C[C@@H](O)CN3C(=O)[C@@H](NC(=O)OC)C(C)(C)C)cc2)c2ccccc2)cc1)C(C)(C)C [Example 48]	1 to 10
COC(=O)N[C@H](C(=O)N1CCC[C@H]1C(=O)Nc1ccc(CN(Cc2ccc(NC(=O)[C@@H]3CCCN3C(=O)[C@@H](NC(=O)OC)[C@H](C)O)cc2)c2ccccc2)cc1)[C@H](C)O [Example 49, dimethyl [(phenylimino)bis{methanediylbenzene-4,1-diylcarbamoyl(2S)pyrrolidine-2,1-diyl[(2S,3S)-3-hydroxy-1-oxobutane-1,2-diyl]}]biscarbamate]	1 to 10
CC[C@@H](C)[C@H](NC(=O)OC)C(=O)N1CCC[C@H]1C(=O)Nc1ccc(CN(Cc2ccc(NC(=O)[C@@H]3CCCN3C(=O)[C@@H](NC(=O)OC)[C@H](C)CC)cc2)c2ccccc2)cc1 [Example 50, dimethyl[(phenylimino)bis{methanediylbenzene-4,1-diylcarbamoyl(2S)pyrrolidine-2,1-diyl[(2S,3R)-3-methyl-1-oxopentane-1,2-diyl]}]biscarbamate]	< 1
COC(=O)N[C@H](C(=O)N1CCC[C@H]1C(=O)Nc1ccc(CN(Cc2ccc(NC(=O)[C@@H]3CCCN3C(=O)[C@@H](NC(=O)OC)[C@@H](C)OC)cc2)c2ccccc2)cc1)[C@@H](C)OC [Example 51, dimethyl[(phenylimino)bis{methanediylbenzene-4,1-diylcarbamoyl(2S)pyrrolidine-2,1-diyl[(2S,3R)-3-methoxy-1-oxobutane-1,2-diyl]}]biscarbamate]	1 to 10
COC(=O)N[C@H](C(=O)N1CCC[C@H]1C(=O)Nc1ccc(CN(Cc2ccc(NC(=O)[C@@H]3CCCN3C(=O)[C@@H](NC(=O)OC)C(C)(C)OC)cc2)c2ccccc2)cc1)C(C)(C)OC [Example 52, dimethyl [(phenylimino)bis{methanediylbenzene-4,1-diylcarbamoyl(2S)pyrrolidine-2,1-diyl[(2S)-3-methoxy-3-methyl-1-oxobutane-1,2-diyl]}]biscarbamate]	1 to 10
COC(=O)N[C@H](C(=O)N1CCC[C@H]1C(=O)Nc1ccc(CN(Cc2ccc(NC(=O)[C@@H]3CCCN3C(=O)[C@@H](NC(=O)OC)C(C)(C)C)cc2)c2ccccc2)cc1)[C@H]1CCOC1 [Example 53, N-(methoxycarbonyl)-3-methyl-L-valyl-N-(4-{[{4-[(1-{(2S)-2-[(methoxycarbonyl)amino]-2-[(3R)-tetrahydrofuran-3-yl]acetyl}-L-prolyl)amino]benzyl}(phenyl)amino]methyl}phenyl)-L-prolinamide]	< 1
CCN(CC)[C@@H](C(=O)N1CCC[C@H]1C(=O)Nc1ccc(CN(Cc2ccc(NC(=O)[C@@H]3CCCN3C(=O)[C@@H](c3ccccc3)N(CC)CC)cc2)c2ccc(F)cc2)cc1)c1ccccc1 [Example 54, (2S,2′S)-N,N-{[(4-fluorophenyl)imino]bis(methanediylbenzene-4,1-diyl)}bis{1-[(2R)-2-(diethylamino)-2-phenylacetyl]pyrrolidine-2-carboxamide}]	< 1
O=C(Nc1ccc(CN(Cc2ccc(NC(=O)[C@@H]3CCCN3C(=O)[C@@H](c3ccccc3)N3CCCC3)cc2)c2ccccc2)cc1)[C@@H]1CCCN1C(=O)[C@@H](c1ccccc1)N1CCCC1 [Example 55, (2S,2′S)-N,N′-[(phenylimino)bis(methanediylbenzene-4,1-diyl)]bis{1-[(2R)-2-phenyl-2-pyrrolidin-1-ylacetyl]pyrrolidine-2-carboxamide}]	< 1
COC(=O)N[C@H](C(=O)N1CCC[C@H]1C(=O)Nc1ccc(CN(Cc2ccc(NC(=O)[C@@H]3CCCN3C(=O)[C@@H](c3ccccc3)N3CCCC3)cc2)c2ccccc2)cc1)C(C)(C)C [Example 56, N-(methoxycarbonyl)-3-methyl-L-valyl-N-[4-({phenyl[4-({1-[(2R)-2-phenyl-2-pyrrolidin-1-ylacetyl]-L-prolyl}amino)benzyl]amino}methyl)phenyl]-L-prolinamide]	< 1
O=C(Nc1ccc(CN(Cc2ccc(NC(=O)[C@@H]3CCCN3C(=O)[C@@H](c3ccccc3)N3CCOCC3)cc2)c2ccccc2)cc1)[C@@H]1CCCN1C(=O)[C@@H](c1ccccc1)N1CCOCC1 [Example 57, (2S,2′S)-N,N′-[(phenylimino)bis(methanediylbenzene-4,1-diyl)]bis{1-[(2R)-2-morpholin-4-yl-2-phenylacetyl]pyrrolidine-2-carboxamide}]	< 1
COC(=O)N[C@H](C(=O)N1CCC[C@H]1C(=O)Nc1ccc(CN(Cc2ccc(NC(=O)[C@@H]3CCCN3C(=O)[C@@H](c3ccccc3)N3CCOCC3)cc2)c2ccccc2)cc1)C(C)(C)C [Example 58, N-(methoxycarbonyl)-3-methyl-L-valyl-N-[4-({[4-({1-[(2R)-2-morpholin-4-yl-2-phenylacetyl]-L-prolyl}amino)benzyl](phenyl)amino}methyl)phenyl]-L-prolinamide]	< 1
COC(=O)N[C@H](C(=O)N1CCC[C@H]1C(=O)Nc1ccc(CN(Cc2ccc(NC(=O)[C@@H]3CCCN3C(=O)[C@@H](NC(=O)O[C@H]3CCOC3)C(C)(C)C)cc2)c2ccccc2)cc1)C(C)(C)C [Example 59, methyl (3S)-tetrahydrofuran-3-yl[(phenylimino)bis{methanediylbenzene-4,1-diylcarbamoyl(2S)pyrrolidine-2,1-diyl[(2S)-3,3-dimethyl-1-oxobutane-1,2-diyl]}]biscarbamate]	10 to 100
COC(=O)N[C@@H](Cc1ccccc1)C(=O)N1CCC[C@H]1C(=O)Nc1ccc(CN(Cc2ccc(NC(=O)[C@@H]3CCCN3C(=O)[C@H](Cc3ccccc3)NC(=O)OC)cc2)c2ccccc2)cc1 [Example 61, dimethyl [(phenylimino)bis{methanediylbenzene-4,1-diylcarbamoyl(2S)pyrrolidine-2,1-diyl[(2S)-1-oxo-3-phenylpropane-1,2-diyl]}]biscarbamate]	1 to 10
CC[C@H](NC(=O)OC)C(=O)N1CCC[C@H]1C(=O)Nc1ccc(CN(Cc2ccc(NC(=O)[C@@H]3CCCN3C(=O)[C@@H](NC(=O)OC)C(C)(C)C)cc2)c2ccccc2)cc1 [Example 62, N-(methoxycarbonyl)-3-methyl-L-valyl-N-(4-{[{4-[(1-{(2S)-2-[(methoxycarbonyl)amino]butanoyl}-L-prolyl)amino]benzyl}(phenyl)amino]methyl}phenyl)-L-prolinamide]	1 to 10
COC(=O)N[C@@H]1CCC[C@H]2CC[C@@H](C(=O)Nc3ccc(CN(Cc4ccc(NC(=O)[C@@H]5CC[C@@H]6CCC[C@@H](NC(=O)OC)C(=O)N65)cc4)c4ccccc4)cc3)N2C1=O [Example 63, dimethyl [(phenylimino)bis{methanediylbenzene-4,1-diylcarbamoyl[(3S,6R,9aS)-5-oxooctahydro-1H-pyrrolo[1,2-a]azepine-3,6-diyl]}]biscarbamate]	10 to 100
C=CC[C@H]1CC[C@@H](C(=O)Nc2ccc(CN(Cc3ccc(NC(=O)[C@@H]4CC[C@H](CC=C)N4C(=O)[C@@H](NC(=O)OC)C(C)(C)C)cc3)c3ccccc3)cc2)N1C(=O)[C@@H](NC(=O)OC)C(C)(C)C [Example 64]	< 1
CCN(CC)[C@@H](C(=O)N1CCC[C@H]1c1nc2cc(CN(Cc3ccc4[nH]c([C@@H]5CCCN5C(=O)[C@@H](c5ccccc5)N(CC)CC)nc4c3)c3ccccc3)ccc2[nH]1)c1ccccc1 [Example 65, N,N-bis[(2-{(2S)-1-[(2R)-2-(diethylamino)-2-phenylacetyl]pyrrolidin-2-yl}-1H-benzimidazol-5-yl)methyl]aniline]	< 1
O=C([C@@H](c1ccccc1)N1CCCC1)N1CCC[C@H]1c1nc2cc(CN(Cc3ccc4[nH]c([C@@H]5CCCN5C(=O)[C@@H](c5ccccc5)N5CCCC5)nc4c3)c3ccccc3)ccc2[nH]1 [Example 66, N,N-bis[(2-{(2S)-1-[(2R)-2-phenyl-2-pyrrolidin-1-ylacetyl]pyrrolidin-2-yl}-1H-benzimidazol-5-yl)methyl]aniline]	< 1
O=C([C@@H](c1ccccc1)N1CCOCC1)N1CCC[C@H]1c1nc2cc(CN(Cc3ccc4[nH]c([C@@H]5CCCN5C(=O)[C@@H](c5ccccc5)N5CCOCC5)nc4c3)c3ccccc3)ccc2[nH]1 [Example 67, N,N-bis[(2-{(2S)-1-[(2R)-2-morpholin-4-yl-2-phenylacetyl]pyrrolidin-2-yl}-1H-benzimidazol-5-yl)methyl]aniline]	< 1
COC(=O)N[C@H](C(=O)N1CCC[C@H]1C(=O)Nc1ccc(CN(Cc2ccc(NC(=O)[C@@H]3CCCN3C(=O)[C@H](NC(=O)OC)c3ccccc3)cc2)c2ccccc2)cc1)C(C)(C)C [Example 69]	< 1
